{"source": "patent US8241862B2", "about": "“Perinucleolar compartment as a cancer marker” (Northwestern University, priority 2002, dated 2012)", "system": "HeLa cells", "assay": "Effect of chemotherapeutic drugs on PNC prevalence in cultured HeLa cells", "format": "cell-based, human", "procedure": "Cultured HeLa cells, whose PNC prevalence is above 95%, were treated with various chemotherapeutic drugs.", "note": "*1 amine or outer side, *2 acyl side, *3 side chain or, on linkers, in order; H or OH if unused. Where a SMILES comes first, the peptide text is derived from it. Bridges are numbered along the chain shown (N, C = ends). Roman numbers before positions name the chains, in order. [ ]: non-standard residue; d: D form. Actinocin(9to1) = Cc1c2oc3c(C)ccc(C(=O)[*:1])c3nc-2c(C(=O)[*:2])c(N)c1=O; NMeV = CN[C@H](C(=O)O)C(C)C; Sar = CNCC(=O)O", "data": [{"smiles": "O=c1[nH]cc(F)c(=O)[nH]1", "note": "[5′-fluorouracil]", "values": [{"measurement": "Effect on PNC", "setting": "1 to 5 μg/ml, 16 hours", "value": "No effect on PNC structure"}]}, {"smiles": "COc1cc(NS(C)(=O)=O)ccc1Nc1c2ccccc2nc2ccccc12", "note": "[AMSA]", "values": [{"measurement": "Effect on PNC", "setting": "5 to 40 μM, 16 hours", "value": "No effect on PNC structure"}]}, {"smiles": "Cc1c2oc3c(C)ccc(C(=O)N[C@@H]4C(=O)N[C@H](C(C)C)C(=O)N5CCC[C@H]5C(=O)N(C)CC(=O)N(C)[C@@H](C(C)C)C(=O)O[C@@H]4C)c3nc-2c(C(=O)N[C@@H]2C(=O)N[C@H](C(C)C)C(=O)N3CCC[C@H]3C(=O)N(C)CC(=O)N(C)[C@@H](C(C)C)C(=O)O[C@@H]2C)c(N)c1=O", "note": "[Actinomycin D] (I: T[dV]P[Sar][NMeV] / II: T[dV]P[Sar][NMeV]; ester I:1-I:C, II:1-II:C; linker I:N-II:N via Actinocin(9to1))", "values": [{"measurement": "Effect on PNC (cell negative for PNC)", "setting": "0.04 μg/ml, 2 hours", "value": 100, "unit": "% cell negative for PNC"}]}, {"smiles": "COc1cccc2c1C(=O)c1c(O)c3c(c(O)c1C2=O)C[C@@](O)(C(=O)CO)C[C@@H]3O[C@H]1C[C@H](N)[C@H](O)[C@H](C)O1", "note": "[Adriamycin]", "values": [{"measurement": "Effect on PNC", "setting": "5 to 40 μM, 16 hours", "value": "No effect on PNC structure"}]}, {"smiles": "CC[C@@]1(O)C(=O)OCc2c1cc1n(c2=O)Cc2cc3ccccc3nc2-1", "note": "[Campothecin]", "values": [{"measurement": "Effect on PNC (cell negative for PNC)", "setting": "1.25 to 2.5 μg/ml, 1 hour", "value": 100, "unit": "% cell negative for PNC"}]}, {"smiles": "N.N.[Cl][Pt][Cl]", "note": "[Cisplatin]", "values": [{"measurement": "Effect on PNC (cell negative for PNC)", "setting": "0.5 μg/ml, 5 hours", "value": 95, "unit": "% cell negative for PNC"}]}, {"smiles": "Nc1ccn([C@@H]2O[C@H](CO)[C@@H](O)[C@@H]2O)c(=O)n1", "note": "[Cytosine Arabinoside]", "values": [{"measurement": "Effect on PNC", "setting": "10 to 40 μg/ml, 16 hours", "value": "No effect on PNC structure"}]}, {"smiles": "NC(=O)NO", "note": "[Hydroxyurea]", "values": [{"measurement": "Effect on PNC", "setting": "0.5 to 1.5 μM, 16 hours", "value": "No effect on PNC structure"}]}, {"smiles": "CN(Cc1cnc2nc(N)nc(N)c2n1)c1ccc(C(=O)N[C@@H](CCC(=O)O)C(=O)O)cc1", "note": "[Methotrexate]", "values": [{"measurement": "Effect on PNC (cells negative for PNC)", "setting": "0.5 μg/ml, 16 hours", "value": 30, "unit": "% cells negative for PNC"}, {"measurement": "Effect on PNC (cells negative for PNC)", "setting": "1.0 μg/ml, 16 hours", "value": 60, "unit": "% cells negative for PNC"}, {"measurement": "Effect on PNC (cells negative for PNC)", "setting": "2.5 μg/ml, 16 hours", "value": 80, "unit": "% cells negative for PNC"}, {"measurement": "Response of PNC prevalence to dose", "setting": "0.5 to 2.5 μg/ml, 16 hours", "value": "dose-dependent"}]}, {"smiles": "CC(=O)O[C@H]1C(=O)[C@@]2(C)[C@H]([C@H](OC(=O)c3ccccc3)[C@]3(O)C[C@H](OC(=O)[C@H](O)[C@@H](NC(=O)c4ccccc4)c4ccccc4)C(C)=C1C3(C)C)[C@]1(OC(C)=O)CO[C@@H]1C[C@@H]2O", "note": "[Paclitaxel]", "values": [{"measurement": "Effect on PNC", "setting": "5 to 40 μM, 16 hours", "value": "No effect on PNC structure"}]}, {"smiles": "CC[C@]1(O)C[C@H]2CN(CCc3c([nH]c4ccccc34)[C@@](C(=O)OC)(c3cc4c(cc3OC)N(C=O)[C@H]3[C@@](O)(C(=O)OC)[C@H](OC(C)=O)[C@]5(CC)C=CCN6CC[C@]43[C@@H]65)C2)C1", "note": "[Vincristine]", "values": [{"measurement": "Effect on PNC", "setting": "5 to 40 μM, 16 hours", "value": "No effect on PNC structure"}]}]}
